Measured values from PMC8812735, “Discovery of triterpenoids as potent dual inhibitors of pancreatic lipase and human carboxylesterase 1” (Journal of Enzyme Inhibition and Medicinal Chemistry, 2022).

What was measured:
[1] = biological target: T1, hCES1A (Homo sapiens, UniProt P23141); experiment: Inhibition of hCES1A-mediated NLMe hydrolysis in human liver microsomes; format: biochemical; conditions: for Inhibition mode hCES1A / Ki / IC50: NLMe substrate, HLM; for Ki: Lineweaver–Burk second plot; for IC50: mean ± SD (n = 3), read-out: IC50 (µM) hCES1A; for Reversibility of hCES1A inhibition: dose-response curves not affected by pre-incubation times
T1 construct: tissue Bioreclamation IVT lot No. X008067; host or cells: pooled human liver microsomes from 50 donors
T1 sequence (P23141 18-567): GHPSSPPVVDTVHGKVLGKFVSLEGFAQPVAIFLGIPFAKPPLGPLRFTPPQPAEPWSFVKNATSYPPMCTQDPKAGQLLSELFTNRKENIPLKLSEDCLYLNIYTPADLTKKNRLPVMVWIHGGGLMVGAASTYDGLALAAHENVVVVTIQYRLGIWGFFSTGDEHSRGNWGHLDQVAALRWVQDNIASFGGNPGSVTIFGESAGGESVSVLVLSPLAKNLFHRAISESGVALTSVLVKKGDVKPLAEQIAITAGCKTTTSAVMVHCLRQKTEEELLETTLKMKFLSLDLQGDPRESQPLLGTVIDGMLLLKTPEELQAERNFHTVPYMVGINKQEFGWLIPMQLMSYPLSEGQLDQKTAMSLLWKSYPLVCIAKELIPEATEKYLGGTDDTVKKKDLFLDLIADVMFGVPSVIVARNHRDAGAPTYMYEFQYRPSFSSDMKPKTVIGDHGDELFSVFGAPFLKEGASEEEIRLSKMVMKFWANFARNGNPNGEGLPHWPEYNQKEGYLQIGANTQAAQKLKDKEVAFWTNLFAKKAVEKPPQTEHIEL
Experimental: N-Alkylated D-luciferin methyl ester (NLMe), a Specific probe for hCES1A[45], was used for assessing the inhibitory effects for triterpenoids, and BNPP was used as a positive inhibitor of hCES1A. […] Then NLMe (2 µL, 0.15 mM) was added to start the reaction. After shaking the reaction in 37 °C incubator for 10 min, 50 µL of reaction solution was removed and mixed with LDR (50 µL) to terminate the reaction. A multi-mode microplate reader was used to detect the luminescence signal of NL (the hydrolysed metabolite of NLMe). The luminescence product of NL was measured at 580 nm (gain: 140). The final volume ratio of DMSO was less than 1% (V/V).
Subsequently, various concentrations of substrates (selected according to Km) and different concentrations of inhibitors were used to determine the corresponding reaction rate, and the second slope graph of the Lineweaver–Burk diagram was used as a function of the inhibitor to calculate the corresponding inhibition constant (Ki) value. All kinetic data were fitted by the following kinetic equations (a–c), for competitive (a), non-competitive (b) and mixed inhibition (c): (a) V=(VmaxS)/[Km(1+I/Ki)+S] (b) V=(VmaxS)/[(Km+S)×(1+I/Ki)] (c) V=(VmaxS)/[(Km+S)×(1+I/αKi)] where V is the hydrolytic velocity of the reaction, Vmax is the maximum velocity. S and I are substrate (4-MUO, NLMe) and inhibitor (compound 39/41) concentrations, respectively. Ki is the inhibition constant of the tested inhibitor against the target PL and hCES1A; Km is the Michaelis constant (the substrate concentration at half of the Vmax).
All measurements were made in triplicate and the data obtained in the experiment were shown as mean ± SD. The IC50 and Ki values of the compounds with strong inhibitory effect were evaluated by nonlinear regression with graphpad prism 7.0 software (GraphPad Software, Inc., La Jolla, CA).

[2] = system: 3T3-L1 cells; experiment: Lipid droplet formation in differentiating 3T3-L1 cells (Oil red O staining); format: cell-based, mouse; conditions: high concentration (5 µM)
Experimental: The cells were planted in a well plate and cultured for 48 h after the cells were 100% confluent. Mix inhibitors compounds 39 and 41 with solution I (10 µg/mL insulin in DMEM/F: 12 medium, 0.5 mM 3-isobutyl-1-methylxanthine and […]) to different concentrations, Then added to different wells and incubated for 48 h, then the inhibitor was mixed with solution II (5 µg/mL insulin in DMEM/F: 12 medium), then added to the wells of the same concentration and incubated for 48 h. Then, the medium in the well was replaced with DMEM/F:12 medium with different concentrations of inhibitors, and the culture was continued for 48 h.
The lipid droplets of 3T3-L1 cells were stained with Oil Red O stain kit (Beijing solebo Technology Co., Ltd., Beijing, China) after cultured for 48 h. In short, 3T3-L1 cells were washed with PBS 2 times and fixed with ORO fixative for 20–30 min, and then washed again with deionised water for 3 times. Then, 3T3-L1 cells were washed with 60% isopropanol for 5 min, immersed in oil red O solution for 10–20 min, and washed with deionised water for 3–5 times. Mayer's haematoxylin staining solution was added, the nucleus was stained for 1–2 min, then washed for 3–5 times, and Oro buffer solution was added for 1 min. Finally, distilled water was added to cover the cells. The stained lipid droplets were observed under inverted microscope (Lecai DMI8).

Structure (SMILES) | Inhibition mode hCES1A [1] | Ki [1] | IC50 [1] | Reversibility of hCES1A inhibition [1] | lipid droplet formation [2]
CC1(C)CCC2(C(=O)O)CCC3(C)C(=CCC4C5(C)C=C(O)C(=O)C(C)(C)C5CCC43C)C2C1 (stereo not shown) [Compound 39] | Competitive | 0.043 µM | 0.055 ± 0.006 µM | reversible inhibitors | almost no lipid droplets were formed
CC(=O)OC1CCC2(C)C(CCC3(C)C2CC=C2C4C(C)C(C)CCC4(C(=O)O)CCC23C)C1(C)C (stereo not shown) [Compound 41] | Competitive | 0.019 µM | 0.014 ± 0.002 µM | reversible inhibitors | almost no lipid droplets were formed
